The values that follow come from publication PMC12326358, “Effect of Quantitative Structural Properties and Drug Formulation in Four Cannabinoids (Cannabidiol, Cannabigerol, Cannabichromene, and Cannabinol) on Their Lymphatic Transport after Enteral Administration in Rats” (Molecular Pharmaceutics, 2025).

The structures appear in SMILES notation. Several values for one entry are separate records, joined by “and”; a condition that tells them apart may be missing. Equal entries are not always repeated. Entries after “also recorded” stand apart in the source; their conditions may differ. Where two headings read alike, the source gives them in different places.

The nature of data set [1]: Lymphatic transport studies in anesthetized mesenteric lymph duct cannulated rats. As to conditions: for FRL, relative bioavailability via lymph / bioavailability / Kp: intraduodenal, mean ± SD; for FRL, relative bioavailability via lymph: FRL=FAL/F; for bioavailability: F, total absolute bioavailability, sum of FAL and FAP; for Kp: Lymph/serum AUC ratio. As to the method: Anesthetized mesenteric lymph duct cannulated rat model was used for the lymphatic transport measurement as previously described with slight modifications. Briefly, rats were left on normal diet and given 1 mL of olive oil 1 h prior to the surgery to visualize the mesenteric lymph (milky white color). They were anesthetized with intramuscular xylazine 5 mg/kg and ketamine 100 mg/kg after a rapid isoflurane induction. A transverse laparotomy was performed. […] The catheter was fixed in place with two to three drops of tissue adhesive (Histoacryl, B. Braun Surgical, S.A., Spain). A duodenal catheter was also placed (polyethylene, 0.97 mm O.D., 0.58 mm I.D.) via a small duodenotomy and fixed with tissue adhesive. The abdominal wall was sutured in two layers, with both catheters leaving the abdominal cavity through the right flank. At the end of the procedure, the right jugular vein was cannulated for blood sampling.
The rats were then placed on heated pads and covered with blankets to prevent heat loss. Cannabinoids in oil solution or nanoemulsion were then dosed slowly via duodenal catheter over 30 min. The administered dose was 10 mg of CBD and 15 mg of CBG, CBC and CBN (volume 1 mL). Whole lymph was collected in regularly changed Eppendorf tubes from the time the dosing started. When the dosing was finished, continuous hydration with normal saline at a rate of 3 mL/h intraduodenally followed using an infusion pump (Perfusor compactplus, B. Braun Melsungen AG, Germany). Anesthesia was maintained throughout the rest of the experiment and additional ketamine intramuscular boluses were given whenever necessary. Eppendorf tubes were changed hourly and systemic blood was drawn at the same time points. Blood samples were centrifuged (4500 rpm for 10 min) and serum was extracted. Lymph volume was measured gravimetrically and the samples were further processed without additional adjustment. All samples were stored in −80 °C until analysis. Laboratory was unaware of animal assignment to the particular experimental groups (laboratory blinding).
Serum and lymph concentrations in all studies were dose-normalized to 1 mg/kg prior to further calculations. AUC values were determined using linear trapezoidal rule. Exact actual sampling times were used for this purpose. Scheduled sampling times were used for mean concentration plotting in the graphs. PK-solver add-on for MS Excel was used for all basic pharmacokinetic calculations. GraphPad Prism version 10.2.2 (GraphPad Software, San Diego, CA, USA) was used for all statistical analyses and graph plotting. Unpaired Student’s t test was used to compare pharmacokinetic and lymphatic transport parameters between the experimental groups. Level of significance was set to p < 0.05.
Lymphatic transport parameters were defined and calculated as previously described. , Briefly, absolute bioavailability via lymph (FAL) was defined as percentage of administered drug dose absorbed into the lymph. It was determined directly from lymph volume and drug concentration in lymph duct cannulated rats. Absolute bioavailability via portal vein (FAP) was analogically defined as percentage of administered drug dose reaching the systemic circulation after direct absorption into blood. It was calculated using equation 1 FAP=AUCent/AUCiv where AUCent is the area under the dose-normalized blood concentration–time curve after enteral dosing in lymph duct cannulated (i.e., lymph deprived) rats and AUCiv is the respective parameter in a separate intravenously dosed group. Total absolute bioavailability (F) in lymph duct cannulated rats was calculated as a sum of FAL and FAP. In normal animals with no lymph duct cannulation, F was calculated using standard formula for oral bioavailability: 2 F=AUCpo/AUCiv Relative bioavailability via lymph (FRL) was defined as the percentage of systemically available drug that was absorbed via lymph. It was calculated using the equation 3 FRL=FAL/F

The conditions of data set [2]: man, cited from earlier work.
The nature of data set [3]: Log P measurement, octanol–water system. Type of data set: physicochemical. As to the method: There are only calculated log P values available for CBD, CBG, CBC and CBN (range 6.1–7.4). Therefore, log P was measured experimentally for all four cannabinoids during this study. The partition coefficient describes the distribution of a tested compound in a two-phase octanol–water system. It is defined as a ratio of concentrations of the un-ionized compound in octanol and water at equilibrium. Cannabinoids were weighed (2 mg) and dissolved in 2.5 mL of octanol, followed by the addition of 2.5 mL of deionized water. The mixture was shaken for 2 h and then allowed to separate for 24 h. Twenty μL of the aqueous (bottom) phase was transferred into an LC vial, diluted with 60 μL of an appropriate IS at a concentration of 30 ng/mL, and analyzed using the aforementioned UHPLC-MS/MS method. The experiment was repeated five times for each cannabinoid.
Due to the highly lipophilic character of cannabinoids, their concentration in the organic phase is several orders of magnitude higher than the concentration in the aqueous phase. As a result, the difference in the total amount of cannabinoids and the amount present in the organic phase is very small and falls within the experimental error of the analytical method. Therefore, log P values were calculated based on the measured cannabinoid concentration in the aqueous phase, while the concentration in the octanol phase was calculated from the initial amount of the cannabinoid used and its measured concentration in the aqueous phase. […] Due to the very low concentrations of CBD and CBC in the aqueous phase, which fell below the LOQ of both methods, we were unable to determine the log P for these two cannabinoids.

For data set [4] the following is noted: dogs, oral; cited from earlier work.
The conditions of data set [5]: cited from earlier work; for absolute oral bioavailability: species not printed at place, ref reports published so far.
On the set-up of data set [6]: method as in published earlier (Table 1 footnote a). As to conditions: nanoemulsion, IV, rats, 1 mg CBD, mean ± SD, ref published earlier (Table 1 footnote a), cited from earlier work.
The mark [7] stands for this setting: nanoemulsion compared to oil solution, lymph duct-cannulated rats.
Where [8] appears, read: nanoemulsion, lymph duct-cannulated rats.
Setting [9] is: oil solution, lymph duct-cannulated rats.
Where [10] appears, read: rat, in vivo, nanoemulsion, lymph duct-cannulated rats.
The mark [11] stands for this setting: rat, in vivo, oil solution, lymph duct-cannulated rats.
Setting [12] is: octanol–water, from measured aqueous phase concentration, lower bounds based on LOQ, n = 5, read-out: Log P.

What is called bioavailability is the share of a dose that reaches the circulation, judged against a reference dose that is usually intravenous. A word on the Kp: it is tissue or fluid exposure divided by exposure in the circulation. As usually defined, the Tmax is the time at which the peak concentration occurs. Regarding `CCCCCc1cc(O)c2c(c1)OC(C)(CCC=C(C)C)C=C2` (centres unmarked) [CBC, cannabichromene], in data set [1] (setting [7]), the “drop of relative bioavailability via lymph (FRL)” value is reported as “did not reach statistical significance”, the “increase in absolute bioavailability via lymph (FAL)” value (“increase … (FAL)” for short) was found to be 3 fold and the “increase in absolute bioavailability via portal vein (FAP)” value (“increase … (FAP)” below) is recorded as 8 fold. Besides, the “FRL, relative bioavailability via lymph” value in data set [1] (setting [8]) was 47% and 47 ± 14%. The “FRL, relative bioavailability via lymph” value in data set [1] (setting [9]) was determined as 63 ± 17%. In data set [1] (setting [10]), the bioavailability is 29 ± 7% and the Kp worked out at 530 ± 239. Besides, in data set [1] (setting [11]), the bioavailability is 6.6 ± 3.9% and the Kp was 1260 ± 676. For the same molecule, the time of peak concentration (Tmax) in data set [2] (oral administration) is 2 to 4 h. Further, the logP in data set [3] (setting [12]) is above 6.7.

For the molecule `CCCCCc1cc(O)c(C/C=C(\C)CCC=C(C)C)c(O)c1` [CBG, cannabigerol], in data set [1] (rat, in vivo), the “drop of relative bioavailability via lymph (FRL)” value came to 75%, the “increase … (FAL)” value was determined as 8 fold and the “increase … (FAP)” value is 71 fold. In data set [4], the “average Tmax” value was 0.75 h. This molecule returned a logP in data set [3] of 7.2.

Turning to `CCCCCc1cc(O)c2c(c1)OC(C)(C)c1ccc(C)cc1-2` [CBN, cannabinol], in data set [5] (rats, oral administration), the Tmax is 1.5 to 3 h. For the same molecule, in data set [1] (setting [7]), the “drop of relative bioavailability via lymph (FRL)” value is 48%, the “increase … (FAL)” value is 3 fold and the “increase … (FAP)” value is on record as 13 fold. In addition, the “FRL, relative bioavailability via lymph” value in data set [1] (setting [8]) is 36% and 36 ± 20 %. Moreover, the “FRL, relative bioavailability via lymph” value in data set [1] (setting [9]) was 69 ± 13%. In data set [1] (setting [10]), the bioavailability came to 29 ± 10% and the Kp came to 274 ± 231. Also, in data set [1] (setting [11]), the bioavailability came to 5.3 ± 2% and the Kp was 976 ± 519. In data set [3] (setting [12]), the logP was 6.2.

As a reminder, the AUC(0-inf) is total exposure, with the tail of the curve extrapolated. A word on the Vss: it is the apparent volume that relates the amount in the body to the concentration in plasma or blood. The term Cmax denotes the peak of the concentration-time curve. In the case of `C=C(C)[C@@H]1CCC(C)=C[C@H]1c1c(O)cc(CCCCC)cc1O` [CBD, cannabidiol], the oral bioavailability in data set [5] (rats, lipid-free formulation) is 8.5% and 8%; in data set [5] (rats, long-chain triglycerides-based formulation), 22%; in data set [2] (estimated) it was below 10%. Further, the absolute oral bioavailability in data set [5] (sunflower oil-based microemulsion) is 25%; in data set [5] (sunflower oil), 14%. Also, the “drop of relative bioavailability via lymph (FRL)” value in data set [1] (setting [7]) is 74%. The “increase … (FAL)” value in data set [1] (setting [7]) is recorded as “did not increase; also recorded: no increase”. In addition, in data set [1] (setting [7]), the “increase … (FAP)” value came to 11 fold. Also, the “FRL, relative bioavailability via lymph” value in data set [1] (setting [8]) was 13% and 13 ± 8 %; in data set [1] (setting [9]), 50 ± 12%. Also, the figures for the bioavailability in data set [1] (setting [10]) and in data set [1] (setting [11]) were 24 ± 9% and 4 ± 1.5%, respectively. For the same molecule, the figures for the Kp in data set [1] (setting [10]) and in data set [1] (setting [11]) were 100 ± 60 and 699 ± 333, respectively. For the same molecule, in data set [6] (dose-normalized to 1 mg/kg), the AUC(0-inf) is 0.623 ± 0.141 µg·h/mL. For the same molecule, the T1/2 in data set [6] is recorded as 2.5 ± 0.5 h. For the same molecule, in data set [6], the Vss was 2.9 ± 1.1 L/kg. Moreover, the Cmax in data set [6] (serum, dose-normalized to 1 mg/kg) was 0.845 ± 0.253 µg/mL. Also, the “bioavailability increase when taken with food” value in data set [2] (oral) is given as “up to 4 fold”. Moreover, in data set [3] (setting [12]), the logP was above 6.3.
